Literature values, collected in patent US20050158775A1, “Novel plamid DNA comprising reoprter gene DNA and use of the same” (priority 1997, published 2005).

Tested on: PPAR γ
Conditions: at a concentration of 10 μM or less; cited from earlier work

CCCCC[C@H](O)/C=C/[C@@H]1[C@H]2C/C(=C/CCCC(=O)O)C[C@H]2C[C@H]1O [carbacyclin]
PPAR γ agonist activity: does not show PPAR γ agonist activity
